Values of other authors as cited in patent US20180185375A1, “COMPOSITIONS AND METHODS FOR THE TREATMENT OF SUBSTANCE USE DISORDERS, ADDICTION, AND PSYCHIATRIC DISORDERS” (EMBERA NEUROTHERAPEUTICS, INC., priority 2015, published 2018).

Assays:
[1] = test system: adrenal gland; conditions: in vivo
[2] = test system: cocaine self-administration in rats
[3] = test system: cortisol levels; conditions: healthy subjects
[4] = 12.5 mg/kg metyrapone tested alone, rats

Clc1ccc(C(c2ccccc2Cl)C(Cl)Cl)cc1 (stereo not drawn) [Mitotane]
doses at which it is an adrenolytic agent [1]: greater than 4 g per day

Cc1nnc2n1-c1ccc(Cl)cc1C(c1ccccc1)=NC2 [alprazolam]
effect of the dose alone on cocaine self-administration ([2]; alprazolam 1.0 mg/kg, ip, alone): ineffective

CCOC(=O)c1cncn1[C@H](C)c1ccccc1 [etomidate]
time after which infusion resulted in significant suppression of cortisol levels [3]: 5 h
time of maximal effects on cortisol levels ([3]; infusion): 11 h

CC(C)(C(=O)c1cccnc1)c1cccnc1 [metyrapone]
effect on cocaine-maintained responding [2, 4]: no effect
effect on food-maintained responding [2, 4]: no effect
